Reference: patent US10730863B2, “Bridged bicyclic compounds as farnesoid X receptor modulators” (BRISTOL-MYERS SQUIBB COMPANY, priority 2017, dated 2020)

Target: FXR (Homo sapiens (Human), UniProt Q96RI1)
Test: FXR EC50 (FXR agonist activity reported with each example)
Format: cell-based

Sequence of FXR (Q96RI1 262-486): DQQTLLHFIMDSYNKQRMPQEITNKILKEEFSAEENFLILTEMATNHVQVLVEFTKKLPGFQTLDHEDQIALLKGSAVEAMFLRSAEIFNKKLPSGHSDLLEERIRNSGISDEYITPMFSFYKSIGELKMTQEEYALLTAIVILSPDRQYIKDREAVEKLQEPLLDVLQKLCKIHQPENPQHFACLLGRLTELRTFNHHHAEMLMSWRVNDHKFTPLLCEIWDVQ

| SMILES | EC50 [nM] |
| --- | --- |
| O=C(O)c1cnc(OCC23CCC(OCc4c(-c5c(Cl)cncc5Cl)noc4C4CC4)(CC2)CC3)cc1C(F)(F)F [Example 283] | 15 |
| COc1ccc(-c2noc(C34CCC(OCc5c(-c6c(Cl)cncc6Cl)noc5C5CC5)(CC3)CC4)n2)nc1C(=O)O [Example 253, 6-(5-(4-((5-cyclopropyl-3-(3,5-dichloropyridin-4-yl)isoxazol-4-yl)methoxy)bicyclo[2.2.2]octan-1-yl)-1,2,4-oxadiazol-3-yl)-3-methoxypicolinic acid] | 740 |
| O=C(O)c1cc(-c2noc(C34CCC(OCc5c(-c6c(Cl)cccc6Cl)noc5C5CC5)(CC3)CC4)n2)ccn1 [Example 14, 4-(5-(4-((5-cyclopropyl-3-(2,6-dichlorophenyl)isoxazol-4-yl)methoxy)bicyclo[2.2.2]octan-1-yl)-1,2,4-oxadiazol-3-yl)picolinic acid] | 130 |
| Cc1nc(C#CC23CCC(OCc4c(-c5c(Cl)cncc5Cl)noc4C4CC4)(CC2)CC3)ccc1C(=O)O [Example 417] | 300 |
| O=C(O)c1cccc(-c2noc(C34CCC(OCc5c(-c6c(Cl)cncc6Cl)noc5C5CC5)(CC3)CC4)n2)c1 [Example 232, 3-(5-(4-((5-cyclopropyl-3-(3,5-dichloropyridin-4-yl)isoxazol-4-yl)methoxy)bicyclo[2.2.2]octan-1-yl)-1,2,4-oxadiazol-3-yl)benzoic acid] | 100 |
| COc1cc(-c2noc(C34CCC(OCc5c(-c6c(Cl)cncc6Cl)noc5C5CC5)(CC3)CC4)n2)cnc1C(=O)O [Example 265, 5-(5-(4-((5-cyclopropyl-3-(3,5-dichloropyridin-4-yl)isoxazol-4-yl)methoxy)bicyclo[2.2.2]octan-1-yl)-1,2,4-oxadiazol-3-yl)-3-methoxypicolinic acid] | 1500 |
| O=C(O)c1cc(OC(F)F)cc(-c2noc(C34CCC(/C=C/c5c(-c6c(Cl)cncc6Cl)noc5C5CC5)(CC3)OC4)n2)c1 [Example 497, (E)-3-(5-(1-(2-(5-cyclopropyl-3-(3,5-dichloropyridin-4-yl)isoxazol-4-yl)vinyl)-2-oxabicyclo[2.2.2]octan-4-yl)-1,2,4-oxadiazol-3-yl)-5-(difluoromethoxy)benzoic acid] | 460 |
| O=C(O)c1cc(C#CC23CCC(OCc4c(-c5c(Cl)cncc5Cl)noc4C4CC4)(CC2)CC3)cc(C(F)(F)F)c1 [Example 366] | 27 |
| CCn1nc(OCC23CCC(OCc4c(-c5c(Cl)cncc5Cl)noc4C4CC4)(CC2)CC3)cc1C(=O)O [Example 316] | 64 |
| O=C(O)c1ccc(C23CCC(/C=C/c4c(-c5c(Cl)cccc5Cl)noc4C4CC4)(CC2)CO3)cc1 [Example 194, (E)-4-(4-(2-(5-cyclopropyl-3-(2,6-dichlorophenyl)isoxazol-4-yl)vinyl)-2-oxabicyclo[2.2.2]octan-1-yl)benzoic acid] | 34 |
| O=C(O)c1cc(F)c2nc(C#CC34CCC(OCc5c(-c6c(Cl)cncc6Cl)noc5C5CC5)(CC3)CC4)sc2c1 [Example 133, 2-((4-((5-cyclopropyl-3-(3,5-dichloropyridin-4-yl)isoxazol-4-yl)methoxy)bicyclo[2.2.2]octan-1-yl)ethynyl)-4-fluorobenzo[d]thiazole-6-carboxylic acid] | 180 |
| O=C(O)c1cncc(OCC23CCC(OCc4c(-c5c(Cl)cccc5Cl)noc4C4CC4)(CC2)CC3)n1 [Example 112, 6-((4-((5-cyclopropyl-3-(2,6-dichlorophenyl)isoxazol-4-yl)methoxy)bicyclo[2.2.2]octan-1-yl)methoxy)pyrazine-2-carboxylic acid] | 690 |
| O=C(O)c1cc(F)cc(-c2noc(C34CCC(OCc5c(-c6c(Cl)cccc6Cl)noc5C5CC5)(CC3)CO4)n2)c1 [Example 219, 3-(5-(4-((5-cyclopropyl-3-(2,6-dichlorophenyl)isoxazol-4-yl)methoxy)-2-oxabicyclo[2.2.2]octan-1-yl)-1,2,4-oxadiazol-3-yl)-5-fluorobenzoic acid] | 300 |
| COC(=O)c1cccc(NC(=O)C23CCC(C=Cc4c(-c5c(Cl)cccc5Cl)noc4C4CC4)(CC2)CC3)c1 [Example 187] | 3000 |
| O=C(O)c1cc(-c2noc(C34CCC(/C=C/c5c(-c6c(Cl)cncc6Cl)noc5C5CC5)(CC3)OC4)n2)cc(C(F)(F)F)c1 [Example 494, (E)-3-(5-(1-(2-(5-cyclopropyl-3-(3,5-dichloropyridin-4-yl)isoxazol-4-yl)vinyl)-2-oxabicyclo[2.2.2]octan-4-yl)-1,2,4-oxadiazol-3-yl)-5-(trifluoromethyl)benzoic acid] | 130 |
| O=C(O)c1cc(C(F)(F)F)c2cc(OCC34CCC(OCc5c(-c6ccccc6C(F)(F)F)noc5C5CC5)(CC3)CC4)ccc2n1 [Example 288] | 250 |
| O=C(O)c1cccc(-c2noc(C34CCC(OCc5c(-c6c(Cl)cccc6Cl)noc5C5CC5)(CC3)CO4)n2)c1 [Example 193, 3-(5-(4-((5-cyclopropyl-3-(2,6-dichlorophenyl)isoxazol-4-yl)methoxy)-2-oxabicyclo[2.2.2]octan-1-yl)-1,2,4-oxadiazol-3-yl)benzoic acid] | 26 |

| SMILES | EC50 [nM] |
| --- | --- |
| O=C(O)c1cc(OC(F)F)c2cc(OCC34CCC(OCc5c(-c6c(Cl)cncc6Cl)noc5C5CC5)(CC3)CC4)ccc2n1 [Example 284, 6-((4-((5-cyclopropyl-3-(3,5-dichloropyridin-4-yl)isoxazol-4-yl)methoxy)bicyclo[2.2.2]octan-1-yl)methoxy)-4-(difluoromethoxy)quinoline-2-carboxylic acid] | 8 |
| O=C(O)c1ccc2nc(C34CCC(COCc5c(-c6c(Cl)cccc6Cl)noc5C5CC5)(CC3)CC4)sc2c1 [Example 168, 2-(4-(((5-cyclopropyl-3-(2,6-dichlorophenyl)isoxazol-4-yl)methoxy)methyl)bicyclo[2.2.2]octan-1-yl)benzo[d]thiazole-6-carboxylic acid] | 1200 |
| COc1ccc(-c2noc(C34CCC(OCc5c(-c6ccccc6OC(F)(F)F)noc5C5CC5)(CC3)CC4)n2)cc1C(=O)O [Example 4, 5-(5-(4-((5-cyclopropyl-3-(2-(trifluoromethoxy)phenyl)isoxazol-4-yl)methoxy)bicyclo[2.2.2]octan-1-yl)-1,2,4-oxadiazol-3-yl)-2-methoxybenzoic acid] | 110 |
| Clc1cccc(Cl)c1-c1noc(C2CC2)c1COC12CCC(COc3cccc(-c4nn[nH]n4)c3)(CC1)CC2 [Example 89, 4-((4-((3-(2H-tetrazol-5-yl)phenoxy)methyl)bicyclo[2.2.2]octan-1-yloxy)methyl)-5-cyclopropyl-3-(2,6-dichlorophenyl)isoxazole] | 120 |
| O=C(O)c1ccc2nc(C34CCC(OCc5c(-c6c(Cl)cccc6Cl)noc5C5CC5)(CC3)CC4)ccc2c1 [Example 134, 2-(4-((5-cyclopropyl-3-(2,6-dichlorophenyl)isoxazol-4-yl)methoxy)bicyclo[2.2.2]octan-1-yl)quinoline-6-carboxylic acid] | 83 |
| O=C(O)c1ccc2nc(C34CCC(OCc5c(-c6ccccc6C(F)(F)F)noc5C5CC5)(CC3)CC4)sc2c1 [Example 6, 2-(4-((5-cyclopropyl-3-(2-(trifluoromethyl)phenyl)isoxazol-4-yl)methoxy)bicyclo[2.2.2]octan-1-yl)benzo[d]thiazole-6-carboxylic acid] | 4200 |
| COc1ccc(-c2nc(C34CCC(OCc5c(-c6c(Cl)cncc6Cl)noc5C5CC5)(CC3)CC4)co2)cc1C(=O)O [Example 252, 5-(4-(4-((5-cyclopropyl-3-(3,5-dichloropyridin-4-yl)isoxazol-4-yl)methoxy)bicyclo[2.2.2]octan-1-yl)oxazol-2-yl)-2-methoxybenzoic acid] | 86 |
| O=C(O)c1ncc(OCC23CCC(OCc4c(-c5c(Cl)cncc5Cl)noc4C4CC4)(CC2)CC3)c2ccccc12 [Example 292, 4-((4-((5-cyclopropyl-3-(3,5-dichloropyridin-4-yl)isoxazol-4-yl)methoxy)bicyclo[2.2.2]octan-1-yl)methoxy)isoquinoline-1-carboxylic acid] | 9 |
| O=C(O)c1ccc2nc(C(O)C34CCC(OCc5c(-c6c(Cl)cccc6Cl)noc5C5CC5)(CC3)CC4)sc2c1 (stereo not drawn) [Example 124, 2-((4-((5-cyclopropyl-3-(2,6-dichlorophenyl)isoxazol-4-yl)methoxy)bicyclo[2.2.2]octan-1-yl)(hydroxy)methyl)benzo[d]thiazole-6-carboxylic acid] | 490 |
| O=C(O)c1cc(F)c2nc(OCC34CCC(OCc5c(-c6c(Cl)cccc6Cl)noc5C5CC5)(CC3)CC4)sc2c1 [Example 83, 2-((4-((5-cyclopropyl-3-(2,6-dichlorophenyl)isoxazol-4-yl)methoxy)bicyclo[2.2.2]octan-1-yl)methoxy)-4-fluorobenzo[d]thiazole-6-carboxylic acid] | 18 |
| CC(C)Oc1cc(-c2noc(C34CCC(OCc5c(-c6c(Cl)cnn6C)noc5C5CC5)(CC3)CC4)n2)cc(C(=O)O)n1 [Example 274, 4-(5-(4-((3-(4-chloro-1-methyl-1H-pyrazol-5-yl)-5-cyclopropylisoxazol-4-yl)methoxy)bicyclo[2.2.2]octan-1-yl)-1,2,4-oxadiazol-3-yl)-6-isopropoxypicolinic acid] | 890 |
| O=C(O)Cc1ccc(/C=C/C23CCC(OCc4c(-c5c(Cl)cncc5Cl)noc4C4CC4)(CC2)CC3)cc1 [Example 516, (E)-2-(4-(2-(4-((5-cyclopropyl-3-(3,5-dichloropyridin-4-yl)isoxazol-4-yl)methoxy)bicyclo[2.2.2]octan-1-yl)vinyl)phenyl)acetic acid] | 173 |
| O=C(O)c1c(OC2CCC2)cc(Cl)c2nc(C34CCC(OCc5c(-c6c(Cl)cncc6Cl)noc5C5CC5)(CC3)CC4)ccc12 [Example 429] | 4 |
| O=C(O)c1cccc(-c2noc(C34CCC(CNc5c(-c6c(Cl)cccc6Cl)noc5C5CC5)(CC3)CC4)n2)c1 [Example 166, 3-(5-(4-(((5-cyclopropyl-3-(2,6-dichlorophenyl)isoxazol-4-yl)amino)methyl)bicyclo[2.2.2]octan-1-yl)-1,2,4-oxadiazol-3-yl)benzoic acid] | 580 |
| O=C(O)c1cccc(NC(=O)C23CCC(COCc4c(-c5c(Cl)cccc5Cl)noc4C4CC4)(CC2)CC3)c1Cl [Example 173] | 1400 |
| N#CC12CCC(OCc3c(-c4c(Cl)cccc4Cl)noc3C3CC3)(CC1)CC2 [Intermediate 70A, 4-((5-Cyclopropyl-3-(2,6-dichlorophenyl)isoxazol-4-yl)methoxy)bicyclo[2.2.2]octane-1-carbonitrile] | 470 |
